Assay results from DBAASP.
≈ marks a conversion by molar mass, not a printed value. Where “and” joins values, the source holds several entries; their conditions need not be identical. Identical values can stand only once.

Legend:
Assay in all cases: ≥ marks a high value that may be exact or a test limit, other limits are often not marked, values filed in µg/mL are converted to µM
Acinetobacter baumannii = test system: Acinetobacter baumannii
[1] = test system: Enterobacter cloacae 2524
[2] = test system: Enterobacter cloacae 6780
Escherichia coli 170 = test system: Escherichia coli 170
Escherichia coli 4530 = test system: Escherichia coli 4530
[3] = test system: Escherichia coli ATCC 25922
[4] = test system: Klebsiella pneumoniae 1625
[5] = test system: Klebsiella pneumoniae 913
[6] = test system: Pseudomonas aeruginosa 4677
[7] = test system: Pseudomonas aeruginosa 5106
Escherichia coli BW25113 = test system: Escherichia coli BW25113
Escherichia coli F2513 = test system: Escherichia coli F2513
Escherichia coli F470 = test system: Escherichia coli F470
Escherichia coli JW3596 = test system: Escherichia coli JW3596
Escherichia coli JW3605 = test system: Escherichia coli JW3605
[8] = test system: Micrococcus luteus ATCC 9341
Aeromonas sobria = test system: Aeromonas sobria
Arcyria cinerea = test system: Arcyria cinerea
[9] = test system: Candida albicans ATCC 2002
Candida glabrata 0902 = test system: Candida glabrata 0902
Cryptococcus neoformans = test system: Cryptococcus neoformans
[10] = test system: Cutibacterium acnes ATCC 11827
[11] = test system: Enterococcus faecalis 981
[12] = test system: Enterococcus faecium 1299
Escherichia coli 1334 = test system: Escherichia coli 1334
Escherichia coli 1335 = test system: Escherichia coli 1335
Escherichia coli 1342 = test system: Escherichia coli 1342
Escherichia coli 1375 = test system: Escherichia coli 1375
Escherichia coli = test system: Escherichia coli
[13] = test system: Klebsiella pneumoniae 1400
Klebsiella pneumoniae = test system: Klebsiella pneumoniae
Proteus mirabilis = test system: Proteus mirabilis
Proteus vulgaris = test system: Proteus vulgaris
[14] = test system: Pseudomonas aeruginosa 1411
[15] = test system: Pseudomonas aeruginosa 1412
[16] = test system: Pseudomonas aeruginosa 1413
[17] = test system: Pseudomonas aeruginosa ATCC 27853
[18] = test system: Salmonella enterica subsp. enterica serovar Typhi
Serratia marcescens = test system: Serratia marcescens
[19] = test system: Staphylococcus aureus 1303
[20] = test system: Staphylococcus aureus 1307
[21] = test system: Staphylococcus aureus 1350
[22] = test system: Staphylococcus aureus ATCC 2592
Staphylococcus aureus = test system: Staphylococcus aureus
[23] = test system: Staphylococcus epidermidis
[24] = test system: Staphylococcus haemolyticus
[25] = test system: Stenotrophomonas maltophilia
[26] = test system: Bacillus anthracis Sterne 34F2
[27] = test system: Bacillus subtilis ATCC 9372
[28] = test system: Burkholderia thailandensis

Which MIC (Acinetobacter baumannii) does the source give for `CC[C@H](C)[C@H](N)C(=O)N[C@@H](CCCCN)C(=O)N[C@@H](CO)C(=O)N[C@H](C(=O)N[C@@H](C)C(=O)N[C@@H](CO)C(=O)N[C@@H](CCCCN)C(=O)N[C@H](C(=O)N[C@@H](C)C(=O)N[C@@H](CC(N)=O)C(=O)N[C@H](C(=O)N[C@H](C(=O)N[C@@H](CCC(N)=O)C(=O)N[C@@H](CCCCN)C(=O)N[C@@H](CC(C)C)C(=O)N[C@@H](CCCCN)C(=O)N[C@@H](CCCN=C(N)N)C(=O)N[C@@H](CCCCN)C(=O)N[C@@H](C)C(=O)N[C@@H](CCCCN)C(=O)N[C@@H](CC(N)=O)C(=O)N[C@@H](C)C(=O)N[C@H](C(=O)O)C(C)C)C(C)C)[C@@H](C)O)C(C)C)[C@@H](C)CC` [IKSIASKVANTVQKLKRKAKNAV] here?
The MIC was 8.84 µM (≈ 22.1 µg/mL).

What about the MIC [1] of the same compound?
The MIC was at least 50 µM.

What about the MIC [2] of the same compound?
The MIC was 25 µM (≈ 62.4 µg/mL).

What about the MIC (Escherichia coli 170) of the same compound?
Its MIC is 3.12 µM (≈ 7.79 µg/mL).

What about the MIC (Escherichia coli 4530) of the same compound?
The MIC was 25 µM (≈ 62.4 µg/mL).

And the MIC [3]?
Its MIC is 12.5 µM (≈ 31.2 µg/mL).

And the MIC [4]?
Its MIC is 3.12 µM (≈ 7.79 µg/mL).

What about the MIC [5] of the same compound?
Its MIC is at least 50 µM.

And the MIC [6]?
Its MIC is 12.5 µM (≈ 31.2 µg/mL).

And the MIC [7]?
Its MIC is at least 50 µM.

How did the MIC [3] turn out when `CC[C@H](C)[C@H](N)C(=O)N[C@@H](CC(C)C)C(=O)N1CCC[C@H]1C(=O)N[C@@H](Cc1c[nH]c2ccccc12)C(=O)N[C@@H](CCCCN)C(=O)N[C@@H](Cc1c[nH]c2ccccc12)C(=O)N1CCC[C@H]1C(=O)N[C@@H](Cc1c[nH]c2ccccc12)C(=O)N[C@@H](Cc1c[nH]c2ccccc12)C(=O)N1CCC[C@H]1C(=O)N[C@@H](Cc1c[nH]c2ccccc12)C(=O)N[C@@H](CCCN=C(N)N)C(N)=O` [ILPWKWPWWPWR] was run?
Its MIC is 18.3 µM (≈ 32 µg/mL).

What about the MIC (Escherichia coli BW25113) of the same compound?
The MIC was 18.3 µM (≈ 32 µg/mL).

What about the MIC (Escherichia coli F2513) of the same compound?
The MIC was 6.46 µM (≈ 11.3 µg/mL).

And the MIC (Escherichia coli F470)?
Its MIC is 18.3 µM (≈ 32 µg/mL).

And the MIC (Escherichia coli JW3596)?
Its MIC is 2.28 µM (≈ 4 µg/mL).

And the MIC (Escherichia coli JW3605)?
Its MIC is 18.3 µM (≈ 32 µg/mL).

And the MIC [8]?
The MIC was 0.8 µM (≈ 1.4 µg/mL).

With `CC[C@H](C)[C@H](NC(=O)[C@H](C)NC(=O)[C@H](CCCN=C(N)N)NC(=O)[C@H](Cc1ccc(O)cc1)NC(=O)[C@H](CC(C)C)NC(=O)[C@H](CC(N)=O)NC(=O)[C@H](Cc1ccc(O)cc1)NC(=O)CNC(=O)[C@H](C)NC(=O)[C@@H](NC(=O)[C@@H](NC(=O)[C@@H](NC(=O)[C@H](CCCN=C(N)N)NC(=O)[C@@H](NC(=O)[C@@H](NC(=O)[C@@H](NC(=O)[C@@H]1CCCN1C(=O)[C@H](Cc1c[nH]c2ccccc12)NC(=O)[C@H](Cc1ccccc1)NC(=O)[C@H](CCCN=C(N)N)NC(=O)[C@H](CCCCN)NC(=O)[C@@H](NC(=O)[C@@H](N)CCCN=C(N)N)[C@@H](C)CC)C(C)C)C(C)C)[C@@H](C)CC)[C@@H](C)O)C(C)C)C(C)C)C(=O)N[C@@H](CCCCN)C(=O)N[C@@H](CCCCN)C(=O)N[C@@H](CCCCN)C(=O)O` [RIKRFWPVVIRTVVAGYNLYRAIKKK] as the compound, how does the MIC (Acinetobacter baumannii) read?
Its MIC is 1.48 µM and 1.05 µM.

What about the MIC (Aeromonas sobria) of the same compound?
The MIC was 1.48 µM (≈ 4.7 µg/mL).

And the MIC (Arcyria cinerea)?
Its MIC is 0.37 µM and 0.74 µM.

And the MIC [9]?
Its MIC is 0.18 µM and 0.37 µM.

What about the MIC (Candida glabrata 0902) of the same compound?
The MIC was 5.9 µM (≈ 18.7 µg/mL).

What about the MIC (Cryptococcus neoformans) of the same compound?
Its MIC is 23.6 µM (≈ 75 µg/mL).

And the MIC [10]?
The MIC was 0.74 µM (≈ 2.35 µg/mL).

And the MIC [11]?
The MIC was 2.95 µM and 1.48 µM.

And the MIC [12]?
The MIC was 1.48 µM (≈ 4.7 µg/mL).

What about the MIC (Escherichia coli 1334) of the same compound?
The MIC was 2.95 µM (≈ 9.37 µg/mL).

What about the MIC (Escherichia coli 1335) of the same compound?
Its MIC is 1.48 µM (≈ 4.7 µg/mL).

And the MIC (Escherichia coli 1342)?
The MIC was 0.74 µM and 1.48 µM.

And the MIC (Escherichia coli 1375)?
The MIC was 2.95 µM (≈ 9.37 µg/mL).

What about the MIC [3] of the same compound?
The MIC was 1.48 µM (≈ 4.7 µg/mL).

What about the MIC (Escherichia coli) of the same compound?
Its MIC is 1.48 µM (≈ 4.7 µg/mL).

What about the MIC [13] of the same compound?
Its MIC is 4.17 µM (≈ 13.2 µg/mL).

What about the MIC (Klebsiella pneumoniae) of the same compound?
The MIC was 2.95 µM and 5.9 µM.

And the MIC (Proteus mirabilis)?
Its MIC is 1.48 µM (≈ 4.7 µg/mL).

And the MIC (Proteus vulgaris)?
The MIC was 23.6 µM (≈ 75 µg/mL).

And the MIC [14]?
The MIC was 1.48 µM and 2.95 µM.

What about the MIC [15] of the same compound?
The MIC was 2.95 µM and 5.9 µM.

And the MIC [16]?
The MIC was 2.95 µM (≈ 9.37 µg/mL).

What about the MIC [17] of the same compound?
The MIC was 5.9 µM and > 2.95 µM.

And the MIC [18]?
Its MIC is 5.9 µM (≈ 18.7 µg/mL).

What about the MIC (Serratia marcescens) of the same compound?
Its MIC is 31.5 µM and 23.6 µM.

And the MIC [19]?
Its MIC is 2.95 µM and 1.48 µM.

What about the MIC [20] of the same compound?
The MIC was 2.95 µM (≈ 9.37 µg/mL).

And the MIC [21]?
Its MIC is 1.48 µM (≈ 4.7 µg/mL).

What about the MIC [22] of the same compound?
The MIC was 0.18 µM (≈ 0.572 µg/mL).

And the MIC (Staphylococcus aureus)?
Its MIC is 0.74 µM and > 0.37 µM.

What about the MIC [23] of the same compound?
The MIC was 2.95 µM (≈ 9.37 µg/mL).

And the MIC [24]?
Its MIC is 0.09 µM (≈ 0.286 µg/mL).

And the MIC [25]?
The MIC was 2.95 µM (≈ 9.37 µg/mL).

For `CC[C@H](C)[C@@H]1NC(=O)CNC(=O)[C@H](CO)NC(=O)[C@H](CC(C)C)NC(=O)[C@H](CC(C)C)NC(=O)[C@H](CC(=O)O)NC(=O)[C@@H](NC(=O)[C@@H](NC(=O)[C@H](C)N)[C@@H](C)O)CSSC[C@@H]2NC(=O)[C@H](Cc3ccc(O)cc3)NC(=O)CNC(=O)CNC(=O)[C@H](CCCN=C(N)N)NC(=O)[C@H](CC(N)=O)NC(=O)CNC(=O)[C@H](CCCN=C(N)N)NC(=O)[C@H](Cc3ccccc3)NC(=O)[C@H](C(C)C)NC(=O)[C@@H]3CSSC[C@@H](C(=O)N[C@@H](CCCN=C(N)N)C(=O)N[C@@H](CC(N)=O)C(=O)O)NC(=O)[C@H](C(C)C)NC(=O)[C@H](CSSC[C@H](NC(=O)[C@H](C)NC(=O)[C@H](CO)NC(=O)[C@H](Cc4cnc[nH]4)NC(=O)[C@H](CCC(N)=O)NC(=O)[C@H](C(C)C)NC(=O)CNC1=O)C(=O)N[C@@H](C)C(=O)N[C@@H](CC(C)C)C(=O)N[C@@H](Cc1cnc[nH]1)C(=O)N3)NC(=O)[C@H]([C@@H](C)CC)NC(=O)CNC(=O)[C@H](CCCCN)NC(=O)CNC(=O)[C@H]([C@@H](C)O)NC2=O` [ATCDLLSGIGVQHSACALHCVFRGNRGGYCTGKGICVCRN], which MIC [26] is on record?
The MIC was at least 79 µM.

What about the MIC [27] of the same compound?
Its MIC is 7.9 µM (≈ 32.7 µg/mL).

And the MIC [28]?
Its MIC is at least 50 µM.
